# “Also recorded” adds a separate entry of the source.
# Key:
# NF-κB p65 (Ser536) = assay: Western blot of LPS-induced NF-κB phosphorylation in L6-GLUT4myc myotubes; type: cell-based, rat; settings: 500 nM CDDO-EA 1 hr then 100 ng/ml LPS 1 hr
# Description: To examine the anti-inflammatory properties of CDDO-EA in skeletal muscle cells, CDDO-EA was examined for its effect on nuclear factor-kappa B (NF-κB) activity in L6-GLUT4myc muscle cells, in the context of LPS-mediated inflammatory responses in L6-GLUT4myc muscle cells. All experiments were independently repeated one to four times and done in duplicate or triplicate, and data were statistically analyzed by One-Way ANOVA or unpaired t-test, two tailed.
# Cells were studied with vehicle alone [0.125% dimethyl sulfoxide (DMSO)] and LPS with and without CDDO-EA. […]
# Western blotting and subcellular fractionation: L6-GLUT4myc myoblasts (4×10^4 cells/ml, 2 ml/well) were seeded onto 6-well dishes and differentiated with differentiation medium for 7 days. […] Protein concentrations were determined using the Pierce BCA Protein Assay (Thermo Fisher Scientific), and equal amounts of protein were separated by electrophoresis and subsequently transferred to nitrocellulose membranes. Membranes were analyzed using the following antibodies from Cell Signaling Technology: phosphorylated NF-κB (Ser536) (93 H1, cat #3033,1:1000), phosphorylated IKB-α (Ser32) (14D4, cat #2859,1:1000), IKB-α (44D4, cat #4812, 1:1000), phosphorylated p38 (Thr180/Tyr182) (cat #9211, 1:1000), p38 (cat #9212, 1:1000). […] Bands were quantitated using ImageQuant (GE Healthcare). […]
# TNF-α = assay: LPS-induced TNF-α ELISA in RAW 264.7 macrophages; type: cell-based, mouse; settings: RAW264.7, 500 nM CDDO-EA 1 hour then 100 ng/ml LPS 6 hours
# Procedure: Cytokine detection: RAW 264.7 cells were grown on 24-well dishes at 1×10^6 cells/ml, 0.5 ml/well. Cells were pre-treated with CDDO-EA 500 nM for 1 h. After 1 h, cells were treated with 100 ng/ml of LPS16,18 (E. coli O111: B4, Sigma Aldrich) for 6 h, and supernatants were collected and stored at −80° C. until analysis. TNF-α from the culture media of cells was measured and quantified using a Mouse TNF (Mono/Mono) ELISA Set (BD Bioscience) according to the manufacturer's instructions.
# MCP-1 = assay: LPS-induced MCP-1 ELISA in RAW264.7 macrophages (CDDO-EA batches); type: cell-based, mouse; settings: RAW264.7, 500 nM 1 hour then 100 ng/ml LPS 6 hr
# Procedure: Macrophages were pre-treated with 500 nM CDDO-EA #1 or 500 nM CDDO-EA #2, for 1 hour. The microphages were then stimulated with 100 ng/ml of lipopolysaccharide (LPS) for 6 hr. Supernatants were collected from each culture. An enzyme linked immunoassay (ELISA) was performed to detect levels of the pro-inflammatory protein, monocyte chemotactic protein-1 (MCP-1). The macrophages were also treated with LPS alone or with CDDO-EA alone. A control (no treatment) group was also included in the study.
# The second batch of CDDO-EA was tested for its biological property of anti-inflammatory activity. As with the first batch of CDDO-EA, this was tested by using the mouse macrophage cell line RAW264.7. RAW264.7 macrophages were pre-treated with 500 nM CDDO-EA for 1 hour then stimulated with 100 ng/ml of lipopolysaccharide (LPS) for 6 hr. Supernatants were collected, and an enzyme linked immunoassay (ELISA) was performed to detect the pro-inflammatory protein, monocyte chemotactic protein-1 (MCP-1). The macrophages were also treated with LPS alone or with CDDO-EA alone. A control (no treatment) group was also included in the study. […] This suppression of MCP-1 production by the second batch CDDO-EA is similar to that observed for the first batch of CDDO-EA. (See FIG. 21).
# GLUT4 = assay: Colorimetric assay of cell surface GLUT4 in L6GLUT4myc myotubes (preliminary data); type: cell-based, rat; settings: FIG. 30
# Procedure: Is CDDO-EA-mediated GLUT4 translocation dependent on AMPK activation? The catalytic subunit alpha-1 (α1) of AMPK will be KD by siRNA. Cells will be treated with CDDO-EA (500 nM, 1 hour), insulin ([…] for 15 min), or insulin and CDDO-EA to determine if there is a synergistic effect on GLUT4 translocation. Also, cells will be treated with the AMPK activator, 5-aminoimidazole-4-carboxamide ribonucleoside (AICAR, 1 mM, 40 minutes), as a positive control. We will use a colorimetric assay to quantitatively measure the levels of cell surface GLUT4 in 3T3-L1 adipocytes and L6GLUT4myc myotubes^37. […] GLUT4 translocation will be detected via immunofluorescence. Subcellular protein fractionation will be conducted to detect GLUT4 in the sarcolemma for myotubes and plasma membrane for adipocytes and GLUT2 in the plasma membrane of hepatocytes via Western blotting. GLUT2 will be measured in hepatocytes because GLUT2 is the most abundant glucose transporter in hepatocytes^38. To measure glucose uptake, a non-radioactive, plate-based bioluminescent assay (Glucose Uptake-Glo, Promega) will be performed. Using Glucose Uptake-Glo, insulin induces glucose uptake in L6GLUT4my myotubes. Phosphorylation of AMPK at Thr^172 and phosphorylation of ACC at Ser^79 indicates activation of the AMPK pathway. Thus, phosphorylation of AMPK Thr^172 and ACC Ser^79 will be shown through Western blotting. […]
# N171-82Q mice = settings: cited from earlier work
smiles,measurement,setting,value
"CCNC(=O)[C@]12CCC(C)(C)C[C@H]1C1C(=O)C=C3[C@@]4(C)C=C(C#N)C(=O)C(C)(C)[C@@H]4CC[C@@]3(C)[C@]1(C)CC2 (stereo partly drawn) [CDDO-EA, (4aS,6aR,6bS,8aR,12aS,14bS)-11-cyano-N-ethyl-2,2,6a,6b,9,9,12a-heptamethyl-10,14-dioxo-1,3,4,5,6,6a,6b, 7,8,8a,9,10,12a, 14,14a, 14b-hexadecahydropicene-4a (2H)-carboxamide]",LPS-induced NF-κB phosphorylation,NF-κB p65 (Ser536),decreased LPS-induced NF-κB and nuclear factor of kappa light polypeptide gene enhancer in B-cells inhibitor-alpha (IκB) phosphorylation; also recorded: inhibited LPS-induced NF-κB phosphorylation; also recorded: inhibits lipopolysaccharide (LPS)-induced NF-κB and Inhibitory kappa B alpha (IκB-α) phosphorylation
same,LPS-induced TNF-α production,TNF-α,substantially blocked; also recorded: inhibits LPS-induced cytokines secretion in macrophages
same,LPS-induced production of MCP-1,MCP-1,significantly suppresses the LPS-induced production
same,GLUT4 translocation to the cell surface (colorimetry assay),GLUT4,induce GLUT4 translocation to the cell surface
same,"muscle strength and balance, survival",N171-82Q mice; N171-82Q mice,improved muscle strength and balance and increased survival
same,accumulation in the skeletal muscle,N171-82Q mice; Stack et al. (2010),accumulated in the skeletal muscle
same,oxidative stress in skeletal muscle,N171-82Q mice; Stack et al. (2010),oxidative stress in skeletal muscle was reduced

# From US20260207626A1, “SYNTHETIC TRITERPENOIDS AND COMPOSITIONS THEREOF IN WEIGHT MANAGEMENT, SKELETAL MUSCLE FUNCTION, AND APPETITE SUPPRESSION” (The Board of Regents of the University of Texas System, priority 2022, published 2026)
